Assay results taken from patent publication US11565998B2, “Succinate prodrug, compositions containing the succinate prodrug and uses thereof” (ABLIVA AB, priority 2019, dated 2023).
In brackets after ≈: the same amount, converted by molar mass.

Key:
[1] = Solubility in aqueous formulations in comparison to other succinate prodrugs; format: physicochemical; settings: pH 7.4, aqueous buffer, thermodynamic from solid; PBS pH7.4
Method: Solubility of Compound 1 in aqueous formulations in comparison to other succinate prodrugs was assessed by dissolving solid material in aqueous formulations and measuring the quantity in solution by HPLC (−MS). […] In many cases the max solubility of other prodrugs was lower than 100 uM. See Table 21 for example solubility data in PBS pH7.4 for other succinate prodrugs.

[2] = Caco-2 bioavailability in vitro assay (apparent permeability); format: in vitro ADME; settings: human; Caco-2, apical to basolateral, 0.01 mM, pH 7.4, 1 h, 37° C.
Method: The cell penetrance and potential for oral bioavailability of Compound 1 was tested using a standard caco-2 bioavailability in vitro assay (in brief, confluent Caco-2 cells (L1, A. P., 1992; Grass, G. M; et al., 1992, Volpe, D. A., et al., 2001) in a 24 well Corning Costar Transwell format were provided by In Vitro Technologies Inc. (IVT Inc., Baltimore, Md., USA). The apical chamber contained 0.15 mL Hank's balanced buffer solution (HBBS) pH 7.4, 1% DMSO, 0.1 mM Lucifer Yellow. The basal chamber contained 0.6 mL HBBS pH 7.4, 1% DMSO. Controls and tests were incubated at 37° C. in a humidified incubator, shaken at 130 rpm for 1 h. Lucifer Yellow permeates via the paracellular (between the tight junctions) route only, a high Apparent Permeability (Papp) for Lucifer Yellow indicates cellular damage during assay and all such wells were rejected. Propranolol (good passive permeation with no known transporter effects) & acebutalol (poor passive permeation attenuated by active efflux by P-glycoprotein) were used as reference compounds. Compounds were tested in a uni- and bi-directional format by applying compound to the apical or basal chamber (at 0.01 mM). Compounds in the apical or basal chambers were analysed by HPLC-MS. Results were expressed as Apparent Permeability, Papp, (nm/s), in comparison to other succinate prodrugs, including a number from WO2015/155231.

[3] = Solubility of batches of different crystallinity; format: physicochemical
Method: Two batches of Compound 1 were generated with different crystallinity. Batch 2 had higher crystallinity than Batch 3, which is regarded as having a higher degree of amorphous Compound 1-Batch 2 is therefore regarded as a more crystalline batch, whereas Batch 3 is regarded as a more amorphous batch. The methods used are discussed in this document.
A sample of the more amorphous Compound 1 batch 3 was added to PBS or water to a final concentration of 258 mg/mL and sonicated for 10 minutes, then shaken for 30 minutes.
A sample of the more crystalline Compound 1 batch 2 was added to HPLC-grade water (Fisher) to a final concentration of 30 mg/mL and sonicated for 10 minutes, then shaken for 30 minutes.
A sample of the more crystalline Compound 1 batch 2 was added to HPLC-grade water (Fisher) to a final concentration of 52 mg/mL and sonicated for 20 minutes, then shaken for 1 hour.
A sample of the more crystalline Compound 1 batch 2 was added to HPLC-grade water (Fisher) to a final concentration of […] and sonicated for 20 minutes, then shaken for 1.5 hours.

[4] = Aqueous formulations of Compound 1 (water, PBS, saline), concentration by HPLC; format: physicochemical; settings: for Calculated concentration by HPLC: 50% w/v in 100 mM PBS pH 7.4; for Calculated Conc.: tap water, target conc. 400 mg/ml; for 400 mg Compound in 0.7 ml Water, Measured Conc.: 400 mg in 0.7 ml
Method: Formulation Protocol • 1. Weigh out the required amount of Compound 1 then add the required amount of excipient (0.9% w/v saline, 100 mM PBS pH 7.4, water) to the solid Compound 1 to give the required mg/ml concentration of Compound 1. For example, for a 400 mg/ml formulation of Compound 1 in water, weigh out 400 mg of Compound 1 and add 0.7 ml of water. • 2. Sonicate the solution for 10 mins and then shake for 20 mins to ensure that Compound 1 is fully dissolved. • 3. The solution can be centrifuged (13000 rpm, 10 mins) to remove any particulates if required. • 4. The solution can be sterile filtered if required.
˜500 mg of compound was weighed into a vial, ˜500 μl 100 mM PBS pH 7.4 added and the vial was sonicated for 10 mins then shaken for 20 mins. A sample was then removed, diluted 1/2000 and the concentration calculated by HPLC analysis.
Compound 1 batch 3 was heated in an oven to 60° C. for 20 mins, at which point it became a translucent pale-yellow liquid. 100 mM PBS pH 7.4 (20% v/v) was added and the solution was mixed for 20 mins on a shaker. […] The solution was placed at 4° C. for 72 hours.
Method: • 1. Saline (0.9% w/v) was added to Compound 1 batch 11 in different amounts then sonicated for 10 mins—the samples remained slightly cloudy • 2. The samples were shaken for 30 mins at which point the solutions became translucent • 3. The solutions were diluted for HPLC analysis

[5] = Stability in purified (HPLC grade) or non-purified (tap) water; format: physicochemical; settings: 1 mg/ml, room temperature
Method: A side-by-side experiment of the stability of Compound 1 in ‘purified’ HPLC grade water (Fisher Scientific) and ‘non-purified’ tap water was set up. In brief, 1 mg/mL solutions of Compound 1 were generated in ‘purified’ HPLC grade water (Fisher Scientific) and ‘non-purified’ tap water. These were incubated at room temperature for up to 10 days. Concentration and purity of Compound 1 was assessed over time by HPLC in comparison to a standard (AUC of 8.21 RT peak at 230 nm for calculated concentration and AUC of Compound 1 peak vs impurities for purity analysis). Data presented is the average of two samples.

[6] = Kinetic solubility (turbidity at 620 nm, dissolution rate constant); format: physicochemical; settings: dissolution in PBS at 5° C., 460 mg/ml final concentration, 3 mins
Method: Solid Compound 1 Batches s3, s12-17 (˜80 mg) were added to wells of a flat clear bottom 96 well plate. PBS at 5° C. was added to give a 460 mg/ml final concentration of 01-354 for all batches. After addition of the PBS, the plate was agitated for 10 s then immediately analysed for turbidity at 620 nm in real time for 3 mins by an Epoch Microplate Spectrophotometer (BioTek). A rate constant for the dissolution was calculated from the exponential decay fit of the recorded data.

[7] = system: human peripheral blood cells; assay: Metformin effect on mitochondrial function and lactate production of human blood cells; format: cell-based
From the text: As mentioned above, increased lactate plasma levels are often observed in patients treated with drugs that may have mitochondrial-related side effects.

## CC(OC(=O)CCC(=O)O)OC(=O)CCC(=O)O [A, reference compound]
[1]
  solubility: 52 µM (≈ 13.6 µg/mL)

## CCN(CC)C(=O)[C@H](CSC(=O)CCC(=O)OC(C)C)NC(C)=O [A]
[2]
  Papp A→B at 1 h, 0.01 mM: 0.313 ×10⁻⁶ cm/s

## CCN(CC)C(=O)[C@H](CSC(=O)CCC(=O)OC)NC(C)=O [B]
[2]
  Papp A→B at 1 h, 0.01 mM: 0.192 ×10⁻⁶ cm/s

## COC(=O)CCC(=O)SCCNC(C)=O [Batch 2, Methyl 3-[(2-acetylaminoethylthio)carbonyl]propionate]
[3]; HPLC-grade water, added to 30 mg/mL, sonicated 10 minutes, shaken 30 minutes
  concentration reached: 17000 µg/mL
[3]; HPLC-grade water, added to 52 mg/mL, sonicated 20 minutes, shaken 1 hour
  concentration reached: 52000 µg/mL
[3]; HPLC-grade water, added to 2000 mg/mL, sonicated 20 minutes, shaken 1.5 hours
  concentration reached: 850000 µg/mL
[3]; HPLC-grade water, water, thermodynamic from solid, more crystalline Compound 1, read-out: water solubility
  solubility at 1.5 h: ≥ 850 mg/mL

## COC(=O)CCC(=O)SCCNC(C)=O [Batch 3, Methyl 3-[(2-acetylaminoethylthio)carbonyl]propionate]
[4]
  Calculated concentration by HPLC: 535 mg/mL
  Calculated Conc.: 381 mg/mL
  400 mg Compound in 0.7 ml Water, Measured Conc.: 381 mg/mL
[4]; batch 3 melted at 60° C., 100 mM PBS pH 7.4 (20% v/v) added, 72 hours at 4° C.
  appearance of liquid formulation: remained a translucent liquid
[3]; PBS or water, water, thermodynamic from solid, PBS or water, added to 258 mg/mL, sonicated 10 minutes, shaken 30 minutes, read-out: concentration reached
  solubility at 30 min: ≥ 258 mg/mL
[5]; HPLC grade water, day 0
  Calculated Conc.: 1.02 mg/mL
  Purity: 99.0%
[5]; HPLC grade water, day 3
  Calculated Conc.: 1.04 mg/mL
  Purity: 98.8%
[5]; HPLC grade water, day 5
  Calculated Conc.: 1.03 mg/mL
  Purity: 99.0%
[5]; HPLC grade water, day 6
  Calculated Conc.: 1.01 mg/mL
  Purity: 99.0%
[5]; tap water, day 0
  Calculated Conc.: 1.06 mg/mL
  Purity: 98.5%
[5]; tap water, day 3
  Calculated Conc.: 0.98 mg/mL
  Purity: 95.7%
[5]; tap water, day 5
  Calculated Conc.: 0.93 mg/mL
  Purity: 94.4%
[5]; tap water, day 6
  Calculated Conc.: 0.89 mg/mL
  Purity: 93.3%
[5]; tap water, day 10
  Calculated Conc.: 0.83 mg/mL
  Purity: 93.0%
[6]
  Rate constants, k: 0.014 s⁻¹

## COC(=O)CCC(=O)SCCNC(C)=O [Batch 4, Methyl 3-[(2-acetylaminoethylthio)carbonyl]propionate]
[4]
  Calculated concentration by HPLC: 526 mg/mL

## COC(=O)CCC(=O)SCCNC(C)=O [Batch 5, Methyl 3-[(2-acetylaminoethylthio)carbonyl]propionate]
[4]
  Calculated concentration by HPLC: 531 mg/mL

## COC(=O)CCC(=O)SCCNC(C)=O [Batch 6, Methyl 3-[(2-acetylaminoethylthio)carbonyl]propionate]
[4]
  Calculated concentration by HPLC: 543 mg/mL

## COC(=O)CCC(=O)SCCNC(C)=O [Batch 12, Methyl 3-[(2-acetylaminoethylthio)carbonyl]propionate]
[4]
  Calculated Conc.: 378 mg/mL
  400 mg Compound in 0.7 ml Water, Measured Conc.: 378 mg/mL
[6]
  Rate constants, k: 0.022 s⁻¹

## COC(=O)CCC(=O)SCCNC(C)=O [Batch 13, Methyl 3-[(2-acetylaminoethylthio)carbonyl]propionate]
[4]
  Calculated Conc.: 395 mg/mL
  400 mg Compound in 0.7 ml Water, Measured Conc.: 395 mg/mL
[6]
  Rate constants, k: 0.013 s⁻¹

## COC(=O)CCC(=O)SCCNC(C)=O [Batch 14, Methyl 3-[(2-acetylaminoethylthio)carbonyl]propionate]
[4]
  Calculated Conc.: 366 mg/mL
  400 mg Compound in 0.7 ml Water, Measured Conc.: 366 mg/mL
[6]
  Rate constants, k: 0.011 s⁻¹

## COC(=O)CCC(=O)SCCNC(C)=O [Batch 15, Methyl 3-[(2-acetylaminoethylthio)carbonyl]propionate]
[4]
  400 mg Compound in 0.7 ml Water, Measured Conc.: 414 mg/mL
[6]
  Rate constants, k: 0.074 s⁻¹

## COC(=O)CCC(=O)SCCNC(C)=O [Batch 16, Methyl 3-[(2-acetylaminoethylthio)carbonyl]propionate]
[4]
  400 mg Compound in 0.7 ml Water, Measured Conc.: 435 mg/mL
[6]
  Rate constants, k: 0.055 s⁻¹

## COC(=O)CCC(=O)SCCNC(C)=O [Batch 17, Methyl 3-[(2-acetylaminoethylthio)carbonyl]propionate]
[6]
  Rate constants, k: 0.111 s⁻¹

## CCOC(=O)CCC(=O)SCCNC(C)=O [C]
[2]
  Papp A→B at 1 h, 0.01 mM: 0.128 ×10⁻⁶ cm/s

## CC(=O)NCC(C)SC(=O)CCC(=O)OC(C)C (stereo not drawn) [D]
[2]
  Papp A→B at 1 h, 0.01 mM: 0.142 ×10⁻⁶ cm/s

## CC(=O)NCCSC(=O)CCC(=O)OCC(C)(C)C [E]
[2]
  Papp A→B at 1 h, 0.01 mM: < 0.021 ×10⁻⁶ cm/s

## COC(=O)CCC(=O)SC(C)CNC(C)=O (stereo not drawn) [F]
[2]
  Papp A→B at 1 h, 0.01 mM: 0.145 ×10⁻⁶ cm/s

## CCOC(=O)CCC(=O)SC(C)CNC(C)=O (stereo not drawn) [G]
[2]
  Papp A→B at 1 h, 0.01 mM: 0.087 ×10⁻⁶ cm/s

## O=C1CNC(=O)[C@H](CSC(=O)CCC(=O)SC[C@@H]2NC(=O)CNC2=O)N1 [HI]
[2]
  Papp A→B at 1 h, 0.01 mM: 0.262 ×10⁻⁶ cm/s

## CC(=O)NCCSC(=O)CCC(=O)OC(C)C [J]
[2]
  Papp A→B at 1 h, 0.01 mM: 0.135 ×10⁻⁶ cm/s

## CCOC(=O)CCC(=O)SC[C@H](NC(C)=O)C(=O)N(CC)CC [K]
[2]
  Papp A→B at 1 h, 0.01 mM: 0.168 ×10⁻⁶ cm/s

## CC(=O)NCC(C)SC(=O)CCC(=O)OCC(C)(C)C (stereo not drawn) [L]
[2]
  Papp A→B at 1 h, 0.01 mM: 0.016 ×10⁻⁶ cm/s

## CCNC(=O)[C@H](CSC(=O)CCC(=O)SC[C@H](NC(=O)CC)C(=O)N(CC)CC)NC(=O)CC [M]
[2]
  Papp A→B at 1 h, 0.01 mM: 0.097 ×10⁻⁶ cm/s

## CN(C)C(=N)N=C(N)N [Metformin]
[7]; human peripheral blood cells, concentrations relevant for metformin intoxication
  mitochondrial function at Complex I: inhibits mitochondrial function of human peripheral blood cells at Complex I in a time- and dose-dependent fashion
[7]; intact platelets, over time
  lactate production: significant increase in lactate production
